Laboratory results as given in ChEMBL document CHEMBL5723584 (2023).

What was measured:
Settings in all cases: Compound concentration 1.0 uM
[1] = molecular target: TGF-beta receptor type-2 (Homo sapiens) (UniProt P37173); assay: activity of TGFBR2(h) at 1.0 µM in the Eurofins Kinase panel
[2] = molecular target: Death-associated protein kinase 3 (Homo sapiens) (UniProt O43293); assay: activity of ZIPK(h) at 1.0 µM in the Eurofins Kinase panel
[3] = molecular target: Serine/threonine-protein kinase 38 (Homo sapiens) (UniProt Q15208); assay: activity of NDR1(h) at 1.0 µM in the Eurofins Kinase panel
[4] = molecular target: Focal adhesion kinase 1 (Homo sapiens) (UniProt Q05397); assay: activity of FAK(h) at 1.0 µM in the Eurofins Kinase panel
[5] = molecular target: RAF proto-oncogene serine/threonine-protein kinase (Homo sapiens) (UniProt P04049); assay: activity of c-RAF(h) at 1.0 µM in the Eurofins Kinase panel
[6] = molecular target: Dual specificity tyrosine-phosphorylation-regulated kinase 2 (Homo sapiens) (UniProt Q92630); assay: activity of DYRK2(h) at 1.0 µM in the Eurofins Kinase panel
[7] = molecular target: Tyrosine-protein kinase Lck (Homo sapiens) (UniProt P06239); assay: activity of Lck(h) at 1.0 µM in the Eurofins Kinase panel
[8] = molecular target: Serine/threonine-protein kinase MRCK gamma (Homo sapiens) (UniProt Q6DT37); assay: activity of MRCKgamma(h) at 1.0 µM in the Eurofins Kinase panel
[9] = molecular target: MAP kinase-activated protein kinase 5 (Homo sapiens) (UniProt Q8IW41); assay: activity of PRAK(h) at 1.0 µM in the Eurofins Kinase panel
[10] = molecular target: Serine/threonine-protein kinase Sgk1 (Homo sapiens) (UniProt O00141); assay: activity of SGK(h) at 1.0 µM in the Eurofins Kinase panel
[11] = molecular target: Serine/threonine-protein kinase tousled-like 2 (Homo sapiens) (UniProt Q86UE8); assay: activity of TLK2(h) at 1.0 µM in the Eurofins Kinase panel
[12] = molecular target: High affinity nerve growth factor receptor (Homo sapiens) (UniProt P04629); assay: activity of TrkA(h) at 1.0 µM in the Eurofins Kinase panel
[13] = molecular target: Serine/threonine-protein kinase PAK 1 (Homo sapiens) (UniProt Q13153); assay: activity of PAK1(h) at 1.0 µM in the Eurofins Kinase panel
[14] = molecular target: Serine/threonine-protein kinase A-Raf (Homo sapiens) (UniProt P10398); assay: activity of A-Raf(h) at 1.0 µM in the Eurofins Kinase panel
[15] = molecular target: [Pyruvate dehydrogenase (acetyl-transferring)] kinase isozyme 4, mitochondrial (Homo sapiens) (UniProt Q16654); assay: activity of PDHK4(h) at 1.0 µM in the Eurofins Kinase panel
[16] = molecular target: Rhodopsin kinase GRK7 (Homo sapiens) (UniProt Q8WTQ7); assay: activity of GRK7(h) at 1.0 µM in the Eurofins Kinase panel
[17] = molecular target: BDNF/NT-3 growth factors receptor (Homo sapiens) (UniProt Q16620); assay: activity of TrkB(h) at 1.0 µM in the Eurofins Kinase panel
[18] = molecular target: Ephrin type-A receptor 4 (Homo sapiens) (UniProt P54764); assay: activity of EphA4(h) at 1.0 µM in the Eurofins Kinase panel
Ephrin type-A receptor 4 (Homo sapiens), sequence (P54764 whole entry): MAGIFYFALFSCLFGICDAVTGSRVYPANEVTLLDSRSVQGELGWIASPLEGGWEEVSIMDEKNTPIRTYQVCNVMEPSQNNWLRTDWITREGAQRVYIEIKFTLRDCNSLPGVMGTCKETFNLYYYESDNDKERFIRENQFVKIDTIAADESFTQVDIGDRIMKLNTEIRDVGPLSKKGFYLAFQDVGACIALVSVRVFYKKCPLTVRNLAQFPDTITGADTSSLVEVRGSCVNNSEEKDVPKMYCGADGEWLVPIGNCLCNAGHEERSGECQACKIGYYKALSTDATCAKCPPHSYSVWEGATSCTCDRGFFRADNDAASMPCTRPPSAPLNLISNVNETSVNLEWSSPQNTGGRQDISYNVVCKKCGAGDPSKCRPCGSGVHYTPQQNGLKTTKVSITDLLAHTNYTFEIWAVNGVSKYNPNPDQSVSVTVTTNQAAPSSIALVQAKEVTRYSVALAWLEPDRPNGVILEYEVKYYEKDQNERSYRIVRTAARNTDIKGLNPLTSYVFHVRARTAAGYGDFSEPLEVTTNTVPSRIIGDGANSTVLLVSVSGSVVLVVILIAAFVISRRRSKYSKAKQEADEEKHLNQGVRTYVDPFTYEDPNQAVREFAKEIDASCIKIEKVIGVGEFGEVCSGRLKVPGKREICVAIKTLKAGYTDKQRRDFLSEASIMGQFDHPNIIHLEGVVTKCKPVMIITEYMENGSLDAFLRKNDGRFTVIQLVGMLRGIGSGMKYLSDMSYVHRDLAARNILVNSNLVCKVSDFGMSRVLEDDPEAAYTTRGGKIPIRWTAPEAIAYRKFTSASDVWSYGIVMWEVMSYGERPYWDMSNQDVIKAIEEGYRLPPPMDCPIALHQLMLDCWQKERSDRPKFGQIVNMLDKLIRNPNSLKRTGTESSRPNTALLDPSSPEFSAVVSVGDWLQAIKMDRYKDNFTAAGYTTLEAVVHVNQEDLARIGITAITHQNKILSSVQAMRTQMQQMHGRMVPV

[19] = molecular target: Maternal embryonic leucine zipper kinase (Homo sapiens) (UniProt Q14680); assay: activity of MELK(h) at 1.0 µM in the Eurofins Kinase panel
[20] = molecular target: Mitogen-activated protein kinase kinase kinase 11 (Homo sapiens) (UniProt Q16584); assay: activity of MLK3(h) at 1.0 µM in the Eurofins Kinase panel
[21] = molecular target: Serine/threonine-protein kinase Nek2 (Homo sapiens) (UniProt P51955); assay: activity of NEK2(h) at 1.0 µM in the Eurofins Kinase panel
Serine/threonine-protein kinase Nek2 (Homo sapiens), sequence (P51955 whole entry): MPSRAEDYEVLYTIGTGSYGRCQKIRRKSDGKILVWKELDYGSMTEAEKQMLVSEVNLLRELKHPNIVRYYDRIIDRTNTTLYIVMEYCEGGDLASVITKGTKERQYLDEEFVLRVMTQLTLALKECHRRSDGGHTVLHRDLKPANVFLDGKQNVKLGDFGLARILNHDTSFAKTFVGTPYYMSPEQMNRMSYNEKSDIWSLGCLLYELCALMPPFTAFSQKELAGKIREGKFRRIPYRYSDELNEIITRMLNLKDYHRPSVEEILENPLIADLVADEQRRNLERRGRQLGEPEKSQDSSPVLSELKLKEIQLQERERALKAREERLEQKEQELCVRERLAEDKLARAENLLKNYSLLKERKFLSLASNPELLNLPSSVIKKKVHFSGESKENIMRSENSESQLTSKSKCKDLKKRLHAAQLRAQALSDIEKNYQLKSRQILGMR

[22] = molecular target: Tyrosine-protein kinase Fer (Homo sapiens) (UniProt P16591); assay: activity of Fer(h) at 1.0 µM in the Eurofins Kinase panel
[23] = molecular target: Protein kinase C beta type (Homo sapiens) (UniProt P05771); assay: activity of PKCbetaII(h) at 1.0 µM in the Eurofins Kinase panel
Protein kinase C beta type (Homo sapiens), sequence (P05771 2-671 limits assumed): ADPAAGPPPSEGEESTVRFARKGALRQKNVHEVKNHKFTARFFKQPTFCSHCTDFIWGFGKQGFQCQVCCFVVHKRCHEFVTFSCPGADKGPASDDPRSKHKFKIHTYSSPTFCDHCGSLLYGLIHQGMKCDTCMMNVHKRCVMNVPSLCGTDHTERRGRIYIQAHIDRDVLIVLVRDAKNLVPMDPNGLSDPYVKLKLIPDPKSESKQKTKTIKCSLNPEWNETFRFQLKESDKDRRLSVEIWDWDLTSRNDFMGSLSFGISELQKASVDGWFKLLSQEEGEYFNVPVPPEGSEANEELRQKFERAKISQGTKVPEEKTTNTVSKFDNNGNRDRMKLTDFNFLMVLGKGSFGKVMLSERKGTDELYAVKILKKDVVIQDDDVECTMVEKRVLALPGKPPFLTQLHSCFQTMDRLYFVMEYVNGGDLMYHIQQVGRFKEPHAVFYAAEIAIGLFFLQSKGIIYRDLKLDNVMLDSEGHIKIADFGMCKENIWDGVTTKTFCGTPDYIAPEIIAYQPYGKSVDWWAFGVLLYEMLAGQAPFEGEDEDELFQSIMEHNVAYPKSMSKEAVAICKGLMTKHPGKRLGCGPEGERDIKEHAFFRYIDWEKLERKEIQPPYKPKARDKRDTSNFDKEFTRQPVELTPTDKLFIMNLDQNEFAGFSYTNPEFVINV

[24] = molecular target: SRSF protein kinase 3 (Homo sapiens) (UniProt Q9UPE1); assay: activity of MSSK1(h) at 1.0 µM in the Eurofins Kinase panel
[25] = molecular target: Tyrosine-protein kinase SYK (Homo sapiens) (UniProt P43405); assay: activity of Syk(h) at 1.0 µM in the Eurofins Kinase panel
[26] = molecular target: Serine/threonine-protein kinase TAO1 (Homo sapiens) (UniProt Q7L7X3); assay: activity of TAO1(h) at 1.0 µM in the Eurofins Kinase panel
Serine/threonine-protein kinase TAO1 (Homo sapiens), sequence (Q7L7X3 whole entry): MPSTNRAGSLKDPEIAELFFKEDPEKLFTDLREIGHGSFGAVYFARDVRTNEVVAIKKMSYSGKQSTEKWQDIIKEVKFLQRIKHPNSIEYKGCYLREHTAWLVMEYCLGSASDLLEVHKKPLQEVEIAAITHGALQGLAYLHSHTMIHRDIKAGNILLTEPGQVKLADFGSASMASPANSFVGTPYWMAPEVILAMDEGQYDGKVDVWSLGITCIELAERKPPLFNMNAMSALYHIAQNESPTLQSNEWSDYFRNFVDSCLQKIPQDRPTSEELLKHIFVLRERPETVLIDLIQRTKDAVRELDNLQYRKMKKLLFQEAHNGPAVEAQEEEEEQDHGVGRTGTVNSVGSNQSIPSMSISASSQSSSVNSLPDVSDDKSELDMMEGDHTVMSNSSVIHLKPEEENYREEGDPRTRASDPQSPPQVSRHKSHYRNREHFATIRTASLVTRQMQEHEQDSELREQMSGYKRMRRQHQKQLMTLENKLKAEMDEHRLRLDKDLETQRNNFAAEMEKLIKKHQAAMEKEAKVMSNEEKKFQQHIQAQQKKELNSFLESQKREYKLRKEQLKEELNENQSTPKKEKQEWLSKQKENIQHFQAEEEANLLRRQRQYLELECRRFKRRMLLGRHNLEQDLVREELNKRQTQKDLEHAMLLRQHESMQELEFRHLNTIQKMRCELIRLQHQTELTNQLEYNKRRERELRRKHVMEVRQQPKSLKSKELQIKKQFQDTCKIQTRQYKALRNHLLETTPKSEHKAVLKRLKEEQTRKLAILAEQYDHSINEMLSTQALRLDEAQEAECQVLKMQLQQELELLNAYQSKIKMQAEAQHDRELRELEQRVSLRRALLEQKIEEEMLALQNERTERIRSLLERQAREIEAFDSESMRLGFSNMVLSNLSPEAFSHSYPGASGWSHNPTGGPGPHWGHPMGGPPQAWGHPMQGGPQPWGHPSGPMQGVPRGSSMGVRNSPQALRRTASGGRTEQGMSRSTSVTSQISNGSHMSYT

[27] = molecular target: G protein-coupled receptor kinase 5 (Homo sapiens) (UniProt P34947); assay: activity of GRK5(h) at 1.0 µM in the Eurofins Kinase panel
G protein-coupled receptor kinase 5 (Homo sapiens), sequence (P34947 whole entry, looked up): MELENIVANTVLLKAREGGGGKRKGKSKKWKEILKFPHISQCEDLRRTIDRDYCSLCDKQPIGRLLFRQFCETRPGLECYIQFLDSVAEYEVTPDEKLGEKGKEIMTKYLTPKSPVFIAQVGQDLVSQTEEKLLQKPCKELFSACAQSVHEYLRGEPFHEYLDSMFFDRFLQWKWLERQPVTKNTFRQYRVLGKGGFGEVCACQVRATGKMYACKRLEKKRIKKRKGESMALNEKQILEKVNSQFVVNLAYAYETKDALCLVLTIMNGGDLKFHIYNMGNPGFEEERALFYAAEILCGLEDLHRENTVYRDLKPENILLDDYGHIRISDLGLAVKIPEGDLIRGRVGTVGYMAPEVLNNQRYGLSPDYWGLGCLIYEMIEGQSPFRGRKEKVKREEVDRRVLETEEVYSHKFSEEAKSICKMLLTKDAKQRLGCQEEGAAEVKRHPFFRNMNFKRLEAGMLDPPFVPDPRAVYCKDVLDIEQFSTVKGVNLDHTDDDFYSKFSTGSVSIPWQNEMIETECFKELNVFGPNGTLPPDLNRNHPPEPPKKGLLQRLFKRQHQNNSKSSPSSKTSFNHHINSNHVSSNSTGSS

[28] = molecular target: Phosphatidylinositol 5-phosphate 4-kinase type-2 alpha (Homo sapiens) (UniProt P48426); assay: activity of PIP4K2alpha(h) at 1.0 µM in the Eurofins Kinase panel
[29] = molecular target: Tyrosine-protein kinase Fyn (Homo sapiens) (UniProt P06241); assay: activity of Fyn(h) at 1.0 µM in the Eurofins Kinase panel
[30] = molecular target: Calcium/calmodulin-dependent protein kinase type 1D (Homo sapiens) (UniProt Q8IU85); assay: activity of CaMKIdelta(h) at 1.0 µM in the Eurofins Kinase panel
[31] = molecular target: Cytoplasmic tyrosine-protein kinase BMX (Homo sapiens) (UniProt P51813); assay: activity of Bmx(h) at 1.0 µM in the Eurofins Kinase panel
[32] = molecular target: CDK17/Cyclin-Y (Homo sapiens) (UniProt Q00537+Q8ND76); assay: activity of CDK17/cyclinY(h) at 1.0 µM in the Eurofins Kinase panel; assay type: protein-complex assay
[33] = molecular target: Calcium/calmodulin-dependent protein kinase type II subunit beta (Homo sapiens) (UniProt Q13554); assay: activity of CaMKIIbeta(h) at 1.0 µM in the Eurofins Kinase panel
[34] = molecular target: Serine/threonine-protein kinase OSR1 (Homo sapiens) (UniProt O95747); assay: activity of OSR1(h) at 1.0 µM in the Eurofins Kinase panel
[35] = molecular target: Mitogen-activated protein kinase kinase kinase 21 (Homo sapiens) (UniProt Q5TCX8); assay: activity of MLK4(h) at 1.0 µM in the Eurofins Kinase panel
Mitogen-activated protein kinase kinase kinase 21 (Homo sapiens), sequence (Q5TCX8 whole entry): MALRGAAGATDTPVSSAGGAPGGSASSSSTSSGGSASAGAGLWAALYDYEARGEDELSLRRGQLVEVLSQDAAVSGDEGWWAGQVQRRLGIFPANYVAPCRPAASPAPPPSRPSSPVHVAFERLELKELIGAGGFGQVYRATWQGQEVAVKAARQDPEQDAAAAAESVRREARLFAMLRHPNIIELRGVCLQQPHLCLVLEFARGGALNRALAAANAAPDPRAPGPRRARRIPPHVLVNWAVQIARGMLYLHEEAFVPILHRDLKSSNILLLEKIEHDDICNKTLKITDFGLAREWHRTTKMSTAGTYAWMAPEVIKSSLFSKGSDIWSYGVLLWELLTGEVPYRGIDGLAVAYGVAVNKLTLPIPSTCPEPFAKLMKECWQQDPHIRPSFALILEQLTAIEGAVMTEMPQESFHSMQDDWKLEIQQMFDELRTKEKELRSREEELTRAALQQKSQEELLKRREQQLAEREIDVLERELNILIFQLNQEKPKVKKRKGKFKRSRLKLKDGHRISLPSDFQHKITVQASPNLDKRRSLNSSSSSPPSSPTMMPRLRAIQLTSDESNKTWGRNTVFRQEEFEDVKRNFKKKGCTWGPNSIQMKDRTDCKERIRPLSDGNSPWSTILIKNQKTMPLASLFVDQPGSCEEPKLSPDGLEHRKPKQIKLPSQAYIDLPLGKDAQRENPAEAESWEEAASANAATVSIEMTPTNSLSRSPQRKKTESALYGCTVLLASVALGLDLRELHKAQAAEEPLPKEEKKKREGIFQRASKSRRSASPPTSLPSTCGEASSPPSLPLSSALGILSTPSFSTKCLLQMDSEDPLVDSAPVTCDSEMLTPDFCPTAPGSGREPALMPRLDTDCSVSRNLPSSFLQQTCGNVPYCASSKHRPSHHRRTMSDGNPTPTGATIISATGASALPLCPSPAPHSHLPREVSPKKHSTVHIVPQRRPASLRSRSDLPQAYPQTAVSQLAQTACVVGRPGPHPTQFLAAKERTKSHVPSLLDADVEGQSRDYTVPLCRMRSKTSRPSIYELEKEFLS

[36] = molecular target: Serine/threonine-protein kinase TBK1 (Homo sapiens) (UniProt Q9UHD2); assay: activity of TBK1(h) at 1.0 µM in the Eurofins Kinase panel
[37] = molecular target: Serine/threonine-protein kinase 10 (Homo sapiens) (UniProt O94804); assay: activity of LOK(h) at 1.0 µM in the Eurofins Kinase panel
[38] = molecular target: Serine/threonine-protein kinase Sgk2 (Homo sapiens) (UniProt Q9HBY8); assay: activity of SGK2(h) at 1.0 µM in the Eurofins Kinase panel
[39] = molecular target: Death-associated protein kinase 1 (Homo sapiens) (UniProt P53355); assay: activity of DAPK1(h) at 1.0 µM in the Eurofins Kinase panel

## Cc1cc2c(-c3ccc(NC(=O)[C@H](N)CC(C)(C)C)cc3C)ccnc2[nH]1
[1]
  activity: 96%
[2]
  activity: 94%
[3]
  activity: 100%
[4]
  activity: 96%
[5]
  activity: 106%
[6]
  activity: 101%
[7]
  activity: 86%
[8]
  activity: 98%
[9]
  activity: 107%
[10]
  activity: 113%
[11]
  activity: 92%
[12]
  activity: 105%
[13]
  activity: 95%
[14]
  activity: 97%
[15]
  activity: 101%
[16]
  activity: 98%
[17]
  activity: 84%
[18]
  activity: 92%
[19]
  activity: 82%
[20]
  activity: 91%
[21]
  activity: 118%
[22]
  activity: 103%
[23]
  activity: 87%
[24]
  activity: 134%
[25]
  activity: 66%
[26]
  activity: 83%
[27]
  activity: 97%
[28]
  activity: 100%
[29]
  activity: 100%
[30]
  activity: 89%
[31]
  activity: 97%
[32]
  activity: 108%
[33]
  activity: 93%
[34]
  activity: 80%
[35]
  activity: 112%
[36]
  activity: 100%
[37]
  activity: 96%
[38]
  activity: 82%
[39]
  activity: 82%
